Data: publication PMC7126937 (Bioorganic & Medicinal Chemistry, 2014)

Legend:
[1] = test system: influenza virus A/California/7/09 (H1N1)pdm09; type: cell-based, influenza virus A/California/07/09 (H1N1)pdm09
[2] = test system: influenza virus A/California/7/09 (H1N1)pdm09; conditions: cited from earlier work

| SMILES | Antiviral (virus-inhibiting) activity, in words [1] | ED50 (50% effective concentration) [2] [µM] |
| --- | --- | --- |
| CC1(C)C2CC[C@@]1(C)C(=O)C2 [Compound 1, (1R)-(+)-camphor, reference compound] | does not possess a virus-inhibiting activity | – |
| CC1(C)[C@@H]2CC[C@@]1(C)/C(=N/CCC/N=C1\C[C@H]3CC[C@]1(C)C3(C)C)C2 [Compound 2a, N^1E,N^3E-N^1,N^3-bis((1R,2R,4R)-1,7,7-trimethylbicyclo[2.2.1]heptan-2-ylidene)propane-1,3-diamine] | highest antiviral activity | – |
| CC1(C)[C@@H]2CC[C@@]1(C)/C(=N/CCCCCC/N=C1\C[C@H]3CC[C@]1(C)C3(C)C)C2 [Compound 2b, N^1E,N^6E-N^1,N^6-bis((1R,2R,4R)-1,7,7-trimethylbicyclo[2.2.1]heptan-2-ylidene)hexane-1,6-diamine] | highest antiviral activity | – |
| CC1(C)[C@@H]2CC[C@@]1(C)/C(=N/CCCCCCC/N=C1\C[C@H]3CC[C@]1(C)C3(C)C)C2 [Compound 2c, N^1E,N^7E-N^1,N^7-bis((1R,2R,4R)-1,7,7-trimethylbicyclo[2.2.1]heptan-2-ylidene)heptane-1,7-diamine] | highest antiviral activity | – |
| CC1(C)[C@@H]2CC[C@@]1(C)/C(=N/CCCCCCCCCCCC/N=C1\C[C@H]3CC[C@]1(C)C3(C)C)C2 [Compound 2e, N^1E,N^12E-N^1,N^12-bis((1R,2R,4R)-1,7,7-trimethylbicyclo[2.2.1]heptan-2-ylidene)dodecane-1,12-diamine] | highest antiviral activity | – |
| CC1(C)[C@@H]2CC[C@@]1(C)/C(=N/c1ccc(Cc3ccc(/N=C4\C[C@H]5CC[C@]4(C)C5(C)C)cc3)cc1)C2 [Compound 2f, (E)-N-((1R,2R,4R)-1,7,7-trimethylbicyclo[2.2.1]heptan-2-ylidene)-4-(4-((E)-((1R,2R,4R)-1,7,7-trimethylbicyclo[2.2.1]heptan-2-ylidene)amino)benzyl)aniline] | did not exhibit high antiviral activity | – |
| CC1(C)[C@@H]2CC[C@@]1(C)[C@H](Nc1ccc(Oc3ccc(N[C@@H]4C[C@H]5CC[C@]4(C)C5(C)C)cc3)cc1)C2 [Compound 3g, (1R,2R,4R)-1,7,7-trimethyl-N-(4-(4-((1R,2R,4R)-1,7,7-trimethylbicyclo[2.2.1]heptan-2-ylamino)phenoxy)phenyl)bicyclo[2.2.1]heptan-2-amine] | did not exhibit high antiviral activity | – |
| CC1(C)[C@@H]2CC[C@@]1(C)/C(=N/c1ccc(Cc3ccc(N)cc3)cc1)C2 [Compound 5f, (E)-4-(4-aminobenzyl)-N-((1R,2R,4R)-1,7,7-trimethylbicyclo[2.2.1]heptan-2-ylidene)aniline] | did not exhibit high antiviral activity | – |
| NC(=O)c1ncn([C@@H]2O[C@H](CO)[C@@H](O)[C@H]2O)n1 [Ribavirin] | – | 24.6 |
